For the experiment, the target named is T1, human TSHR (Homo sapiens, UniProt P16473).
T1 construct: expressed in transfected cells
As to the kind of experiment: Homogeneous Time Resolved Fluorescence (HTRF) cAMP assay, TSHR cell line. As to conditions: for Maximum Activity compared to TSH: 100% activity = response of 30 mU/ml TSH, 0% = DMSO control, in %; for AC50: TSHR cell line, 30 minute incubation; for Emax: read-out: Maximum Activity compared to TSH, 100% activity = response of 30 mU/ml TSH, 0% = DMSO control. It counts as cell-based. The source says:
Generation of Stable Cell-Lines Expressing TSHR, LHCGR or FSHR.
cDNA for human TSHR was amplified by PCR from hTSHR-pSVL (1) and inserted into the pcDNA3.1(−)/hygromycin vector using restriction sites XhoI and BamHI. cDNA for human LHCGR was amplified by PCR from hLHR-pGS5 (2) and was inserted into the pcDNA3.1(+)/hygromycin vector using restriction sites BamHI and XhoI. The FSHR cDNA in pcDNA3.1 was obtained from the Missouri S&T cDNA Resource Center (www.cDNA.org) and was subcloned into the pcDNA3.1(−)/hygromycin vector. Constructs were confirmed by sequencing (MWG Biotech). HEK-EM 293 cells were transfected with the cDNA of TSHR, LHCGR or FSHR using FuGENE 6 Transfection reagent (Roche Diagnostics) according to the manufacturer's protocol. Two days after transfection cells were passaged and grown in Dulbecco's modified Eagle's Medium (DMEM) supplemented with 10% fetal bovine serum, 100 units/ml penicillin and 10 μg/ml streptomycin (Life Technologies Inc.) and with hygromycin (250 μg/ml) as a selection marker. After 7 to 10 days hygromycin-resistant clones were selected, and after a few days of further growth submitted for a cAMP assay to identify clones that stably express the appropriate receptor. Cell Culture. Cells stably expressing TSHR, LHCGR or FSHR and parental HEK 293 cells were maintained in DMEM medium containing 10% FBS, 100 units/ml Penicillin, 100 μg/ml Streptomycin, at 37° C. in 5% CO2. For the cells lines stably expressing TSHR, LHCGR or FSHR, additional 250 μg/ml Hygromycin was added during the cell culture. The cells were seeded at a density of 3 to 4 million cells in a T175 flask containing 35 ml of media and were allowed to grow for 3 days to reach 80-90% confluence. A flask of HEK 293 cells at this density generally yielded 30 million cells total. Homogeneous Time Resolved Fluorescence (HTRF) cAMP Assay. Compounds were assayed using a HTRF cAMP detection kit (Cisbio, Bedford, Mass.) on both TSHR cell line and parental cell line. Briefly, 750 cells were plated in 2.5 μl/well of complete media (DMEM containing 10% FCS) in 1536 well solid bottom white plates and 20 nl/well compound in DMSO solution or controls was added. Following 30 minute incubation at room temperature, 2.5 μl/well of labeled d2 cAMP and 2.5 μl/well of anti-cAMP antibody (both diluted 1:20 in lysis buffer) were added to each well using a flying reagent dispenser (Aurora Discovery, San Diego). Plates were measured using the Envision plate reader (PerkinElmer, Boston, Mass.) with excitation at 330 nm and emissions of 615 nm and 660 nm. Compound Preparation. […] Data Analysis. […] The EC50 values of compounds were calculated from the concentration-response curves by nonlinear regression analysis using Prism software (GraphPad Software, San Diego, Calif.). Confirmatory cAMP Assay and Test for Selectivity Towards TSHR 50,000 cells/well were plated in complete media (DMEM containing 10% FCS) in 96 well plates. […] Following aspiration of the medium after incubation with compounds, cells were lysed using lysis buffer of the cAMP-Screen Direct™ System (Applied Biosystems, Cat # CSD200). The cAMP content of the cell lysate was determined using the manufacturer's protocol. […] Below is a List of Compounds that were Assayed via the Homogeneous Time Resolved Fluorescence (HTRF) cAMP Assay.

Read-outs that look alike come from different tables or passages of the source.

T1 sequence (P16473 21-764): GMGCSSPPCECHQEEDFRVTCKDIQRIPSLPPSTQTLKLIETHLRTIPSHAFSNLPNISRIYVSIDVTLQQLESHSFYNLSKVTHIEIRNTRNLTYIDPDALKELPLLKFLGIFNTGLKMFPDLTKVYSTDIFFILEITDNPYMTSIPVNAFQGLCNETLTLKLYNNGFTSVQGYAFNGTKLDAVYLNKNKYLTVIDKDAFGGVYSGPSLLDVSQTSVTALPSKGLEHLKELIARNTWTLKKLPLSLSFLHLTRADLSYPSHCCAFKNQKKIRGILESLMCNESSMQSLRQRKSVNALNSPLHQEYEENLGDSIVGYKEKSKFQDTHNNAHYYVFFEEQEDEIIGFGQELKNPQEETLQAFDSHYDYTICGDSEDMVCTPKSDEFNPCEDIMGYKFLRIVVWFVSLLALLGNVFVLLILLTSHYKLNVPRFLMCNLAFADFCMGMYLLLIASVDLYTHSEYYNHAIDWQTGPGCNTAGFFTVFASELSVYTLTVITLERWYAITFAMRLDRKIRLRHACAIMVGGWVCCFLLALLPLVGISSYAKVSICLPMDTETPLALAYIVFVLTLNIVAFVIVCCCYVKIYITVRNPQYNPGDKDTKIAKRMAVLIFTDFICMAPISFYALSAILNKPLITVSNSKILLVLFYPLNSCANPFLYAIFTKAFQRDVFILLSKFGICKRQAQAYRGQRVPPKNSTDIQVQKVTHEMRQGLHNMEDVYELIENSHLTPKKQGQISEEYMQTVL

The term AC50 denotes the midpoint of the concentration-response curve, whichever way the signal moves. Regarding `COc1ccc(C2Nc3ccccc3C(=O)N2Cc2ccccc2)cc1COc1ccc(NC(C)=O)cc1` (single isomer, unassigned) [Structure 2], the “Maximum Activity compared to TSH” value turned out to be 217.29. Under “AC50, HTRF cAMP”, the AC50 came to 11.2 µM.
The corresponding values for `COc1ccc(C2Nc3ccccc3C(=O)N2Cc2ccccc2)cc1COc1ccc(NC(C)=O)cc1` (single isomer, unassigned) [Structure 4] are 171.91 and 7.08 µM.
For `COc1ccc(C2Nc3ccccc3C(=O)N2Cc2ccccc2)cc1COc1ccc(NC(C)=O)cc1` (single isomer, unassigned) [Structure 7], the “Maximum Activity compared to TSH” value is on record as 152.47. The same compound had an AC50 (AC50, HTRF cAMP) of 8.91 µM.
Regarding `COc1ccc(C2Nc3ccccc3C(=O)N2Cc2ccccc2)cc1COc1ccc(NC(C)=O)cc1` (single isomer, unassigned) [Structure 24], the “Maximum Activity compared to TSH” value is 159.76. For the setting “AC50, HTRF cAMP”, this compound gave an AC50 of 7.08 µM.
In the case of `COc1ccc(C2Nc3ccccc3C(=O)N2Cc2ccccc2)cc1COc1ccc(NC(C)=O)cc1` (single isomer, unassigned) [Structure 25], the “Maximum Activity compared to TSH” value was found to be 207.56. The AC50 (AC50, HTRF cAMP) is 8.91 µM.
The like results for `COc1ccc(C2Nc3ccccc3C(=O)N2Cc2ccccc2)cc1COc1ccc(NC(C)=O)cc1` (single isomer, unassigned) [Structure 26] were, in that order, 217.05 and 10 µM.
The corresponding values for `COc1ccc(C2Nc3ccccc3C(=O)N2Cc2ccccc2)cc1COc1ccc(NC(C)=O)cc1` (single isomer, unassigned) [Structure 37] are 104.22 and 8.91 µM.
The like results for `COc1ccc(C2Nc3ccccc3C(=O)N2Cc2ccccc2)cc1COc1ccc(NC(C)=O)cc1` (single isomer, unassigned) [Structure 49] were, in that order, 134.24 and 3.55 µM.
With `COc1ccc(C2Nc3ccccc3C(=O)N2Cc2ccccc2)cc1COc1ccc(NC(C)=O)cc1` (single isomer, unassigned) [Structure 51], the “Maximum Activity compared to TSH” value was determined as 174.87. Also, the AC50 (AC50, HTRF cAMP) amounted to 15.8 µM.
On to `COc1ccc(C2Nc3ccccc3C(=O)N2Cc2ccccc2)cc1COc1ccc(NC(C)=O)cc1` (single isomer, unassigned) [Structure 55], for which the “Maximum Activity compared to TSH” value worked out at 194.91. Under “AC50, HTRF cAMP”, this compound showed a half-maximal activity concentration (AC50) of 7.94 µM.
In the case of `COc1ccc(C2Nc3ccccc3C(=O)N2Cc2ccccc2)cc1COc1ccc(NC(C)=O)cc1` (single isomer, unassigned) [Structure 56], the “Maximum Activity compared to TSH” value worked out at 110.90. Besides, the AC50 (AC50, HTRF cAMP) stood at 11.2 µM.
The like results for `COc1ccc(C2Nc3ccccc3C(=O)N2Cc2ccccc2)cc1COc1ccc(NC(C)=O)cc1` (single isomer, unassigned) [Structure 62] were, in that order, 241.92 and 7.08 µM.
As for `COc1ccc(C2Nc3ccccc3C(=O)N2Cc2ccccc2)cc1COc1ccc(NC(C)=O)cc1` (single isomer, unassigned) [Structure 63], the “Maximum Activity compared to TSH” value worked out at 166.46. Where the note is “AC50, HTRF cAMP”, half-maximal activity (AC50) was put at 5.01 µM.
Take `COc1ccc(C2Nc3ccccc3C(=O)N2Cc2ccco2)cc1COc1ccc(NC(C)=O)cc1` (stereo not shown) [Structure 1]: the “Maximum Activity compared to TSH” value is on record as 159.24. The AC50 (HTRF cAMP, read-out: AC50) was found to be 12.6 µM.
The corresponding values for `COc1ccc(CN2C(=O)c3ccccc3NC2c2ccc(OC)c(COc3ccc(NC(C)=O)cc3)c2)cc1` (stereo not shown) [Structure 3] are 93.95 and 4.47 µM.
The corresponding values for `COc1ccc(CN(Cc2ccccc2)C(=O)c2ccccc2)cc1COc1ccc(NC(C)=O)cc1` [Structure 5] are 174.77 and 15.8 µM.
The like results for `COc1ccc(C2Nc3ccccc3C(=O)N2Cc2ccco2)cc1COc1ccc(NC(C)=O)cc1` (stereo not shown) [Structure 6] were, in that order, 180.81 and 17.8 µM.
As to `COc1ccc(C2Nc3ccccc3C(=O)N2Cc2ccco2)cc1COc1ccc(NC(C)=O)cc1` (stereo not shown) [Structure 8], the “Maximum Activity compared to TSH” value came to 115.96. For the same compound, the AC50 (HTRF cAMP, read-out: AC50) was 14.1 µM.
The corresponding values for `COc1ccc(C2Nc3ccccc3C(=O)N2Cc2ccco2)cc1COc1ccc(NC(C)=O)cc1` (stereo not shown) [Structure 9] are 115.62 and 17.8 µM.
With `COc1ccc(C2Nc3ccc(NC(C)=O)cc3C(=O)N2Cc2cccc(Cl)c2)cc1COc1ccc(NC(C)=O)cc1` (stereo not shown) [Structure 10], the Emax was 122%. In addition, for the setting “HTRF cAMP, read-out: AC50”, the AC50 came out at 7.94 µM.
Turning to `COc1ccc(C2Nc3ccccc3C(=O)N2Cc2cccc(Cl)c2)cc1COc1ccc(NC(C)=O)cc1` (stereo not shown) [Structure 11], the “Maximum Activity compared to TSH” value stood at 113.94. Moreover, the AC50 (HTRF cAMP, read-out: AC50) is 3.16 µM.
With `COc1ccc(C2Nc3ccccc3C(=O)N2Cc2cccc(Cl)c2)cc1COc1ccc(NC(C)=O)cc1` (stereo not shown) [Structure 12], the “Maximum Activity compared to TSH” value turned out to be 91.43. Further, for the setting “HTRF cAMP, read-out: AC50”, the AC50 was 3.98 µM.
The corresponding values for `COc1ccc(C2Nc3ccccc3C(=O)N2Cc2cccc(-c3ccccc3)c2)cc1COc1ccc(NC(C)=O)cc1` (stereo not shown) [Structure 13] are 103.29 and 2.24 µM.
Turning to `COc1ccc(C2Nc3ccccc3C(=O)N2Cc2ccco2)cc1COc1ccc(NC(C)=O)cc1` (stereo not shown) [Structure 14], the “Maximum Activity compared to TSH” value turned out to be 104.66. For the setting “HTRF cAMP, read-out: AC50”, the AC50 stood at 11.2 µM.
As for `COc1ccc(C(=O)N(Cc2ccccc2)Cc2ccc(OC)c(COc3ccc(NC(C)=O)cc3)c2)cc1` [Structure 15], the Emax is 123%. Further, for the setting “HTRF cAMP, read-out: AC50”, the AC50 worked out at 12.6 µM.
In the case of `CCCCN1C(=O)c2ccccc2NC1c1ccc(OC)c(COc2ccc(NC(C)=O)cc2)c1` (stereo not shown) [Structure 16], the “Maximum Activity compared to TSH” value was 97.95. For the setting “HTRF cAMP, read-out: AC50”, the AC50 is 20 µM.
`COc1ccc(-c2nc3ccccc3c(=O)n2Cc2ccccc2)cc1COc1ccc(NC(C)=O)cc1` [Structure 17]: the “Maximum Activity compared to TSH” value came to 93.46. In addition, under “HTRF cAMP, read-out: AC50”, the AC50 was found to be 10 µM.
The like results for `COc1cccc(CN2C(=O)c3ccccc3NC2c2ccc(OC)c(COc3ccc(NC(C)=O)cc3)c2)c1` (stereo not shown) [Structure 18] were, in that order, 215.89 and 6.31 µM.
The corresponding values for `COc1ccc(C2Nc3ccccc3C(=O)N2Cc2ccco2)cc1COc1ccc(NC(C)=O)cc1` (stereo not shown) [Structure 19] are 142.18 and 15.8 µM.
For the compound `COc1ccc(C2Nc3ccccc3C(=O)N2Cc2ccco2)cc1COc1ccc(NC(C)=O)cc1` (stereo not shown) [Structure 20], the “Maximum Activity compared to TSH” value came to 156.28. Also, the AC50 (HTRF cAMP, read-out: AC50) came to 14.1 µM.
For the compound `COc1ccc(CN(Cc2ccccc2)C(=O)c2ccccc2N)cc1COc1ccc(NC(C)=O)cc1` [Structure 21], the “Maximum Activity compared to TSH” value is 236.35. Also, for the setting “HTRF cAMP, read-out: AC50”, the AC50 stood at 25.1 µM.
As to `COc1ccc(C2Nc3ccccc3C(=O)N2Cc2ccccc2)cc1CSc1ccc(NC(C)=O)cc1` (stereo not shown) [Structure 22], the “Maximum Activity compared to TSH” value is 463.89. Besides, under “HTRF cAMP, read-out: AC50”, the AC50 is 7.94 µM.
As to `COc1ccc(C2Nc3ccccc3C(=O)N2Cc2ccco2)cc1COc1ccc(NC(C)=O)cc1` (stereo not shown) [Structure 23], the “Maximum Activity compared to TSH” value is on record as 165.50. In addition, the AC50 (HTRF cAMP, read-out: AC50) is 15.8 µM.
The corresponding values for `COc1ccc(C2Nc3ccccc3C(=O)N2Cc2cccc(C(F)(F)F)c2)cc1COc1ccc(NC(C)=O)cc1` (stereo not shown) [Structure 27] are 123.52 and 4.47 µM.
The like results for `COc1ccc(C2Nc3cccc(O)c3C(=O)N2Cc2ccccc2)cc1COc1ccc(NC(C)=O)cc1` (stereo not shown) [Structure 28] were, in that order, 405.10 and 10 µM.
